In brackets after ≈: the same amount, converted by molar mass.
What was measured:
S. marcescens GN6944 = assay: MIC, agar plate dilution method, S. marcescens GN6944; format: cell-based, Serratia marcescens; conditions: S. marcescens GN6944, GM-resistant; for MIC: Serratia marcescens, read-out: minimal inhibitory concentration (MIC)
How it was run: (§1)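 Agar plate dilution per Japan Society of Chemotherapy standard; read-out = MIC in μg/mL.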

E. faecium ATCC19434 = assay: MIC, agar plate dilution method, E. faecium ATCC19434; format: cell-based, Enterococcus faecium; conditions: for minimal inhibitory concentration (MIC): E. faecium ATCC19434; for MIC: Enterococcus faecium, ATCC19434, E. faecium ATCC19434, read-out: minimal inhibitory concentration (MIC)
How it was run: as §1

P. aeruginosa MSC01035 = assay: MIC, agar plate dilution method, P. aeruginosa MSC01035; format: cell-based, Pseudomonas aeruginosa; conditions: P. aeruginosa MSC01035, ABK-resistant; for MIC: Pseudomonas aeruginosa, read-out: minimal inhibitory concentration (MIC)
How it was run: as §1

[1] = test system: K. pneumoniae ATCC BAA-2146; assay: MIC, agar plate dilution method, K. pneumoniae ATCC BAA-2146; format: cell-based, Klebsiella pneumoniae; conditions: for minimal inhibitory concentration (MIC): K. pneumoniae ATCC BAA-2146, NDM-producing strain; for MIC: Klebsiella pneumoniae, ATCCBAA2146, K. pneumoniae ATCC BAA-2146, NDM-producing strain, read-out: minimal inhibitory concentration (MIC)
How it was run: as §1

E. coli JM109/pMW218 = assay: MIC, agar plate dilution method, E. coli JM109/pMW218; format: cell-based, Escherichia coli; conditions: for minimal inhibitory concentration (MIC): E. coli JM109/pMW218, Sensitive bacterium; for MIC: Escherichia coli, JM109/PMW218, E. coli JM109/pMW218, Sensitive bacterium, read-out: minimal inhibitory concentration (MIC)
How it was run: as §1

S. aureus RN4220/pMS520 = assay: MIC, agar plate dilution method, S. aureus RN4220/pMS520; format: cell-based, Staphylococcus aureus; conditions: for minimal inhibitory concentration (MIC): S. aureus RN4220/pMS520, MRSA; for MIC: Staphylococcus aureus, MRSA, read-out: minimal inhibitory concentration (MIC), S. aureus RN4220/pMS520, MRSA
How it was run: as §1

[2] = test system: A. baumannii ATCC BAA-1710; assay: MIC, agar plate dilution method, A. baumannii ATCC BAA-1710; format: cell-based, Acinetobacter baumannii; conditions: for minimal inhibitory concentration (MIC): A. baumannii ATCC BAA-1710, MDRA; for MIC: Acinetobacter baumannii, ATCCBAA1710, A. baumannii ATCC BAA-1710, MDRA, read-out: minimal inhibitory concentration (MIC)
How it was run: as §1

[3] = test system: K. pneumoniae ATCC BAA-1705; assay: MIC, agar plate dilution method, K. pneumoniae ATCC BAA-1705; format: cell-based, Klebsiella pneumoniae; conditions: for minimal inhibitory concentration (MIC): K. pneumoniae ATCC BAA-1705, KPC-producing strain; for MIC: Klebsiella pneumoniae, ATCCBAA1705, K. pneumoniae ATCC BAA-1705, KPC-producing strain, read-out: minimal inhibitory concentration (MIC)
How it was run: as §1

P. aeruginosa MSC17707 = assay: MIC, agar plate dilution method, P. aeruginosa MSC17707; format: cell-based, Pseudomonas aeruginosa; conditions: for minimal inhibitory concentration (MIC): P. aeruginosa MSC17707, AMK-resistant; for MIC: Pseudomonas aeruginosa, MSC17707, P. aeruginosa MSC17707, AMK-resistant, read-out: minimal inhibitory concentration (MIC)
How it was run: as §1

P. aeruginosa PAO1/GN315 = assay: MIC, agar plate dilution method, P. aeruginosa PAO1/GN315; format: cell-based, Pseudomonas aeruginosa; conditions: for minimal inhibitory concentration (MIC): P. aeruginosa PAO1/GN315, AMK-resistant; for MIC: Pseudomonas aeruginosa, read-out: minimal inhibitory concentration (MIC), P. aeruginosa PAO1/GN315, AMK-resistant
How it was run: as §1

S. aureus RN4220 = assay: MIC, agar plate dilution method, S. aureus RN4220; format: cell-based, Staphylococcus aureus; conditions: for minimal inhibitory concentration (MIC): S. aureus RN4220, Sensitive bacterium; for MIC: Staphylococcus aureus, RN4220, S. aureus RN4220, Sensitive bacterium, read-out: minimal inhibitory concentration (MIC)
How it was run: as §1

P. aeruginosa PAO1 = assay: MIC, agar plate dilution method, P. aeruginosa PAO1; format: cell-based, Pseudomonas aeruginosa; conditions: for minimal inhibitory concentration (MIC): P. aeruginosa PAO1, Sensitive bacterium; for MIC: Pseudomonas aeruginosa, PAO1, P. aeruginosa PAO1, Sensitive bacterium, read-out: minimal inhibitory concentration (MIC)
How it was run: as §1

S. aureus MF490 = assay: MIC, agar plate dilution method, S. aureus MF490; format: cell-based, Staphylococcus aureus; conditions: for minimal inhibitory concentration (MIC): S. aureus MF490, MRSA; for MIC: Staphylococcus aureus, MRSA, read-out: minimal inhibitory concentration (MIC)
How it was run: as §1

S. marcescens TH-0447 = assay: MIC, agar plate dilution method, S. marcescens TH-0447; format: cell-based, Serratia marcescens; conditions: for minimal inhibitory concentration (MIC): S. marcescens TH-0447, AMK-resistant; for MIC: Serratia marcescens, TH0447, S. marcescens TH-0447, AMK-resistant, read-out: minimal inhibitory concentration (MIC)
How it was run: as §1

CN[C@@H]1[C@@H](O[C@H]2O[C@H](CO)[C@@H](NC(=N)N)[C@H](O)[C@H]2O)O[C@H]2C[C@@H](N)[C@@H](O[C@H]3[C@@H](O)[C@@H](O)[C@H](N)C[C@@H]3N)O[C@@H]2[C@@H]1O [Compound S1-j, 4″-deamino-5-epi-4″-guanidinoapramycin]
minimal inhibitory concentration (MIC) (S. marcescens GN6944): 4 µg/mL (≈ 6.88 µM) | minimal inhibitory concentration (MIC) (E. faecium ATCC19434): 8 µg/mL (≈ 13.8 µM) | minimal inhibitory concentration (MIC) (P. aeruginosa MSC01035): 4 µg/mL (≈ 6.88 µM) | minimal inhibitory concentration (MIC) [1]: 1 µg/mL (≈ 1.72 µM) | minimal inhibitory concentration (MIC) (E. coli JM109/pMW218): 0.5 µg/mL (≈ 0.86 µM) | minimal inhibitory concentration (MIC) (S. aureus RN4220/pMS520): 1 µg/mL (≈ 1.72 µM) | minimal inhibitory concentration (MIC) [2]: 4 µg/mL (≈ 6.88 µM) | minimal inhibitory concentration (MIC) [3]: 1 µg/mL (≈ 1.72 µM) | minimal inhibitory concentration (MIC) (P. aeruginosa MSC17707): 4 µg/mL (≈ 6.88 µM) | minimal inhibitory concentration (MIC) (P. aeruginosa PAO1/GN315): 4 µg/mL (≈ 6.88 µM) | minimal inhibitory concentration (MIC) (S. aureus RN4220): 2 µg/mL (≈ 3.44 µM) | minimal inhibitory concentration (MIC) (P. aeruginosa PAO1): 2 µg/mL (≈ 3.44 µM) | minimal inhibitory concentration (MIC) (S. aureus MF490): 4 µg/mL (≈ 6.88 µM) | minimal inhibitory concentration (MIC) (S. marcescens TH-0447): 4 µg/mL (≈ 6.88 µM)

CNC1C(O[C@H]2OC(CO)[C@@H](NC(=N)N)[C@H](O)C2O)O[C@H]2CC(N)[C@@H](O[C@@H]3C(N)C[C@@H](N)C(O)[C@H]3F)OC2C1O (stereo partly drawn) [Compound S1-k, 4″-deamino-5-deoxy-5-epi-5-fluoro-4″-guanidinoapramycin]
MIC (S. marcescens GN6944): 4 µg/mL (≈ 6.85 µM) | MIC (E. faecium ATCC19434): 16 µg/mL (≈ 27.4 µM) | MIC (P. aeruginosa MSC01035): 8 µg/mL (≈ 13.7 µM) | MIC [1]: 1 µg/mL (≈ 1.71 µM) | MIC (E. coli JM109/pMW218): 0.5 µg/mL (≈ 0.857 µM) | MIC (S. aureus RN4220/pMS520): 1 µg/mL (≈ 1.71 µM) | MIC [2]: 8 µg/mL (≈ 13.7 µM) | MIC [3]: 1 µg/mL (≈ 1.71 µM) | MIC (P. aeruginosa MSC17707): 8 µg/mL (≈ 13.7 µM) | MIC (P. aeruginosa PAO1/GN315): 8 µg/mL (≈ 13.7 µM) | MIC (S. aureus RN4220): 1 µg/mL (≈ 1.71 µM) | MIC (P. aeruginosa PAO1): 8 µg/mL (≈ 13.7 µM) | MIC (S. aureus MF490): 4 µg/mL (≈ 6.85 µM) | MIC (S. marcescens TH-0447): 8 µg/mL (≈ 13.7 µM)

CNC1C(CO)OC(OC2OC3CC(N)C(OC4C(N)CC(N)CC4O)OC3C(O)C2NC)C(O)C1O (stereo not drawn) [Compound S1-l, 6-deoxy-5-epi-4″-N-methylapramycin]
minimal inhibitory concentration (MIC) (S. marcescens GN6944): 2 µg/mL (≈ 3.72 µM) | minimal inhibitory concentration (MIC) (E. faecium ATCC19434): 16 µg/mL (≈ 29.8 µM) | minimal inhibitory concentration (MIC) (P. aeruginosa MSC01035): 4 µg/mL (≈ 7.44 µM) | minimal inhibitory concentration (MIC) [1]: 0.5 µg/mL (≈ 0.93 µM) | minimal inhibitory concentration (MIC) (E. coli JM109/pMW218): 0.5 µg/mL (≈ 0.93 µM) | minimal inhibitory concentration (MIC) (S. aureus RN4220/pMS520): 1 µg/mL (≈ 1.86 µM) | minimal inhibitory concentration (MIC) [2]: 4 µg/mL (≈ 7.44 µM) | minimal inhibitory concentration (MIC) [3]: 1 µg/mL (≈ 1.86 µM) | minimal inhibitory concentration (MIC) (P. aeruginosa MSC17707): 4 µg/mL (≈ 7.44 µM) | minimal inhibitory concentration (MIC) (P. aeruginosa PAO1/GN315): 4 µg/mL (≈ 7.44 µM) | minimal inhibitory concentration (MIC) (S. aureus RN4220): 2 µg/mL (≈ 3.72 µM) | minimal inhibitory concentration (MIC) (P. aeruginosa PAO1): 4 µg/mL (≈ 7.44 µM) | minimal inhibitory concentration (MIC) (S. aureus MF490): 8 µg/mL (≈ 14.9 µM) | minimal inhibitory concentration (MIC) (S. marcescens TH-0447): 4 µg/mL (≈ 7.44 µM)

CNC1C(O[C@H]2OC(CO)[C@@H](NCCN)[C@H](O)C2O)O[C@H]2CC(N)[C@@H](O[C@@H]3C(N)C[C@@H](N)C[C@H]3O)OC2C1O (stereo partly shown) [Compound S1-m, 6-deoxy-4″-N-(2-aminoethyl)-5-epiapramycin]
MIC (S. marcescens GN6944): 8 µg/mL (≈ 14.1 µM) | MIC (E. faecium ATCC19434): 16 µg/mL (≈ 28.2 µM) | MIC (P. aeruginosa MSC01035): 8 µg/mL (≈ 14.1 µM) | MIC [1]: 1 µg/mL (≈ 1.76 µM) | MIC (E. coli JM109/pMW218): 1 µg/mL (≈ 1.76 µM) | MIC (S. aureus RN4220/pMS520): 2 µg/mL (≈ 3.53 µM) | MIC [2]: 4 µg/mL (≈ 7.06 µM) | MIC [3]: 2 µg/mL (≈ 3.53 µM) | MIC (P. aeruginosa MSC17707): 8 µg/mL (≈ 14.1 µM) | MIC (P. aeruginosa PAO1/GN315): 8 µg/mL (≈ 14.1 µM) | MIC (S. aureus RN4220): 2 µg/mL (≈ 3.53 µM) | MIC (P. aeruginosa PAO1): 4 µg/mL (≈ 7.06 µM) | MIC (S. aureus MF490): 8 µg/mL (≈ 14.1 µM) | MIC (S. marcescens TH-0447): 4 µg/mL (≈ 7.06 µM)

CNC1C(O[C@H]2OC(CO)[C@@H](NCCCN)[C@H](O)C2O)O[C@H]2CC(N)[C@@H](O[C@@H]3C(N)C[C@@H](N)C[C@H]3O)OC2C1O (stereo partly shown) [Compound S1-n, 6-deoxy-4″-N-(3-aminopropyl)-5-epiapramycin]
MIC (S. marcescens GN6944): 4 µg/mL (≈ 6.89 µM) | MIC (E. faecium ATCC19434): 8 µg/mL (≈ 13.8 µM) | MIC (P. aeruginosa MSC01035): 4 µg/mL (≈ 6.89 µM) | MIC [1]: 1 µg/mL (≈ 1.72 µM) | MIC (E. coli JM109/pMW218): 1 µg/mL (≈ 1.72 µM) | MIC (S. aureus RN4220/pMS520): 2 µg/mL (≈ 3.44 µM) | MIC [2]: 4 µg/mL (≈ 6.89 µM) | MIC [3]: 1 µg/mL (≈ 1.72 µM) | MIC (P. aeruginosa MSC17707): 8 µg/mL (≈ 13.8 µM) | MIC (P. aeruginosa PAO1/GN315): 4 µg/mL (≈ 6.89 µM) | MIC (S. aureus RN4220): 2 µg/mL (≈ 3.44 µM) | MIC (P. aeruginosa PAO1): 4 µg/mL (≈ 6.89 µM) | MIC (S. aureus MF490): 8 µg/mL (≈ 13.8 µM) | MIC (S. marcescens TH-0447): 4 µg/mL (≈ 6.89 µM)

— patent US11135234B2, “Effective aminoglycoside antibiotic for multidrug-resistant bacteria” (MICROBIAL CHEMISTRY RESEARCH FOUNDATION, priority 2015, dated 2021)
